Measurements: US4639433A, “Glycopeptide derivatives” (Eli Lilly and Company, priority 1985, dated 1987)
Converted amounts (≈) assume the structure as drawn.

Key:
[1] = system: Streptococcus faecium ATCC 9790; settings: agar dilution
Escherichia coli EC14 = settings: agar dilution
[2] = system: Staphylococcus aureus NRRL B313; settings: agar dilution
[3] = system: Haemophilus influenzae C.L.; settings: agar dilution
[4] = system: Staphylococcus aureus X400; settings: agar dilution
[5] = system: Haemophilus influenzae 76; settings: agar dilution
[6] = system: Staphylococcus epidermidis EPI1; settings: agar dilution
Escherichia coli TEM = settings: agar dilution
[7] = system: Staphylococcus epidermidis 222; settings: agar dilution
[8] = system: Staphylococcus aureus V41; settings: agar dilution
Streptococcus pneumoniae = assay: Experimental bacterial infection in mice, ED50; type: in vivo; settings: two doses, administered subcutaneously
[9] = system: Klebsiella pneumoniae X68; settings: agar dilution
[10] = system: Streptococcus pyogenes C203; settings: agar dilution
Streptococcus pyogenes = assay: Experimental bacterial infection in mice, ED50; type: in vivo; settings: two doses, administered subcutaneously
[11] = system: Klebsiella pneumoniae KAE; settings: agar dilution
[12] = system: Streptococcus sp. group D 2041; settings: agar dilution
[13] = system: Staphylococcus aureus S13E; settings: agar dilution
Escherichia coli N10 = settings: agar dilution
[14] = system: Streptococcus pneumoniae Park 1; settings: agar dilution
[15] = system: Klebsiella pneumoniae X26; settings: agar dilution
Staphylococcus aureus = assay: Experimental bacterial infection in mice, ED50; type: in vivo; settings: two doses, administered subcutaneously

Structure (SMILES)	MIC [1] [µg/mL]	MIC (Escherichia coli EC14)	MIC [2] [µg/mL]	MIC [3]	MIC [4] [µg/mL]	MIC [5]	MIC [6] [µg/mL]	MIC (Escherichia coli TEM)	MIC [7] [µg/mL]	MIC [8] [µg/mL]	ED50 (Streptococcus pneumoniae) [mg/kg/2]	MIC [9]	MIC [10] [µg/mL]	ED50 (Streptococcus pyogenes) [mg/kg/2]	MIC [11]	MIC [12] [µg/mL]	MIC [13] [µg/mL]	MIC (Escherichia coli N10)	MIC [14] [µg/mL]	MIC [15]	other results
CCCCCCCC(=O)NC1(C)CC(OC2C(Oc3c4cc5cc3Oc3ccc(cc3Cl)C(O)C3NC(=O)C(NC(=O)C5NC(=O)C(CC(N)=O)NC(=O)C(NC(=O)C(CC(C)C)NC)C(O)c5ccc(c(Cl)c5)O4)c4ccc(O)c(c4)-c4c(O)cc(O)cc4C(C(=O)O)NC3=O)OC(CO)C(O)C2O)OC(C)C1O (stereo not drawn) [Compound 3, N^van --(1-oxo-n-octyl)vancomycin]	2 (≈ 1.27 µM)	-- (not active at 128 mcg/ml)	1 (≈ 0.635 µM)	-- (not active at 128 mcg/ml)	2 (≈ 1.27 µM)	-- (not active at 128 mcg/ml)	8 (≈ 5.08 µM)	-- (not active at 128 mcg/ml)	2 (≈ 1.27 µM)	2 (≈ 1.27 µM)	4.8	-- (not active at 128 mcg/ml)	0.5 (≈ 0.317 µM)	4.4	-- (not active at 128 mcg/ml)	4 (≈ 2.54 µM)	2 (≈ 1.27 µM)	-- (not active at 128 mcg/ml)	0.5 (≈ 0.317 µM)	-- (not active at 128 mcg/ml)	ED50 (Staphylococcus aureus): 6.9 mg/kg/2
CCCCCCCCCC(=O)NC1(C)CC(OC2C(Oc3c4cc5cc3Oc3ccc(cc3Cl)C(O)C3NC(=O)C(NC(=O)C5NC(=O)C(CC(N)=O)NC(=O)C(NC(=O)C(CC(C)C)NC)C(O)c5ccc(c(Cl)c5)O4)c4ccc(O)c(c4)-c4c(O)cc(O)cc4C(C(=O)O)NC3=O)OC(CO)C(O)C2O)OC(C)C1O (stereo not drawn) [Compound 6, N^van-(1-oxo-n-Decyl)vancomycin]	0.5 (≈ 0.312 µM)	-- (not active at 128 mcg/ml)	0.5 (≈ 0.312 µM)	-- (not active at 128 mcg/ml)	0.5 (≈ 0.312 µM)	-- (not active at 128 mcg/ml)	2 (≈ 1.25 µM)	-- (not active at 128 mcg/ml)	1 (≈ 0.624 µM)	0.5 (≈ 0.312 µM)	1.4	-- (not active at 128 mcg/ml)	0.5 (≈ 0.312 µM)	2.9	-- (not active at 128 mcg/ml)	1 (≈ 0.624 µM)	0.5 (≈ 0.312 µM)	-- (not active at 128 mcg/ml)	1 (≈ 0.624 µM)	-- (not active at 128 mcg/ml)	ED50 (Staphylococcus aureus): 5 mg/kg/2
C=CCCCCCCCCC(=O)NC1(C)CC(OC2C(Oc3c4cc5cc3Oc3ccc(cc3Cl)C(O)C3NC(=O)C(NC(=O)C5NC(=O)C(CC(N)=O)NC(=O)C(NC(=O)C(CC(C)C)NC)C(O)c5ccc(c(Cl)c5)O4)c4ccc(O)c(c4)-c4c(O)cc(O)cc4C(C(=O)O)NC3=O)OC(CO)C(O)C2O)OC(C)C1O (stereo not drawn) [Compound 9, N^van --(1-oxo-10-n-decenyl)vancomycin]	0.25 (≈ 0.155 µM)	-- (not active at 128 mcg/ml)	0.5 (≈ 0.309 µM)	-- (not active at 128 mcg/ml)	0.5 (≈ 0.309 µM)	128 µg/mL (≈ 79.2 µM)	2 (≈ 1.24 µM)	-- (not active at 128 mcg/ml)	0.5 (≈ 0.309 µM)	0.5 (≈ 0.309 µM)	1.8	-- (not active at 128 mcg/ml)	0.25 (≈ 0.155 µM)	1.9	-- (not active at 128 mcg/ml)	1 (≈ 0.619 µM)	0.5 (≈ 0.309 µM)	-- (not active at 128 mcg/ml)	0.25 (≈ 0.155 µM)	-- (not active at 128 mcg/ml)	ED50 (Staphylococcus aureus): 3.7 mg/kg/2
CCCCCCCCCCCC(=O)NC1(C)CC(OC2C(Oc3c4cc5cc3Oc3ccc(cc3Cl)C(O)C3NC(=O)C(NC(=O)C5NC(=O)C(CC(N)=O)NC(=O)C(NC(=O)C(CC(C)C)NC)C(O)c5ccc(c(Cl)c5)O4)c4ccc(O)c(c4)-c4c(O)cc(O)cc4C(C(=O)O)NC3=O)OC(CO)C(O)C2O)OC(C)C1O (stereo not drawn) [Compound 12, N^van --(1-oxo-n-dodecyl)vancomycin]	0.5 (≈ 0.306 µM)	-- (not active at 128 mcg/ml)	0.25 (≈ 0.153 µM)	-- (not active at 128 mcg/ml)	0.5 (≈ 0.306 µM)	-- (not active at 128 mcg/ml)	2 (≈ 1.23 µM)	-- (not active at 128 mcg/ml)	0.5 (≈ 0.306 µM)	0.25 (≈ 0.153 µM)	0.9	-- (not active at 128 mcg/ml)	0.5 (≈ 0.306 µM)	1.6	-- (not active at 128 mcg/ml)	0.5 (≈ 0.306 µM)	0.5 (≈ 0.306 µM)	-- (not active at 128 mcg/ml)	0.5 (≈ 0.306 µM)	-- (not active at 128 mcg/ml)	ED50 (Staphylococcus aureus): 6.8 mg/kg/2
CCCCCCCCCCCCCC(=O)NC1(C)CC(OC2C(Oc3c4cc5cc3Oc3ccc(cc3Cl)C(O)C3NC(=O)C(NC(=O)C5NC(=O)C(CC(N)=O)NC(=O)C(NC(=O)C(CC(C)C)NC)C(O)c5ccc(c(Cl)c5)O4)c4ccc(O)c(c4)-c4c(O)cc(O)cc4C(C(=O)O)NC3=O)OC(CO)C(O)C2O)OC(C)C1O (stereo not drawn) [Compound 14, N^van --(1-oxo-n-tetradecyl)vancomycin]	0.5 (≈ 0.301 µM)	-- (not active at 128 mcg/ml)	2 (≈ 1.21 µM)	128 µg/mL (≈ 77.1 µM)	2 (≈ 1.21 µM)	128 µg/mL (≈ 77.1 µM)	8 (≈ 4.82 µM)	-- (not active at 128 mcg/ml)	2 (≈ 1.21 µM)	2 (≈ 1.21 µM)	1.3	-- (not active at 128 mcg/ml)	2 (≈ 1.21 µM)	1.4	-- (not active at 128 mcg/ml)	0.5 (≈ 0.301 µM)	0.5 (≈ 0.301 µM)	-- (not active at 128 mcg/ml)	2 (≈ 1.21 µM)	-- (not active at 128 mcg/ml)	ED50 (Staphylococcus aureus): 6.6 mg/kg/2
